From PMC12677607, “Identification of a Pair of Linear or Cyclic Naturally Inspired Bifunctional Lipopeptide Antibiotics That Overcome Antimicrobial Resistance” (Advanced Science, 2025)
Bridge positions count the residues as written; N and C are the ends. Square brackets hold non-standard residues; d marks the D form. Peptide text beside a SMILES is read from it. * marks the point of attachment. Myristoyl = CCCCCCCCCCCCCC(=O)*; Orn = NCCC[C@H](N)C(=O)O; Dab = NCC[C@H](N)C(=O)O; Dap = NC[C@H](N)C(=O)O

Columns and labels:
[1] = tested on: four Gram-negative bacteria, four Gram-positive bacteria, and one fungal pathogen; test: Initial antimicrobial assay of 17 synAQUs; assay type: cell-based; details: MIC up to 64 µg mL^−1, Figure 3a
Description: (§1) All MIC assays were performed two independent times (n = 2) in 96‐well plates using a broth micro‐dilution method. The lowest concentration of that inhibited visible microbial growth was recorded as the MIC value.
(§2) For most of bacterial strains, overnight cultures were diluted 5000‐fold in LB broth. For E. faecium and S. aureus, overnight cultures were diluted 1000‐ and 10000‐fold in LB broth, respectively. 100 µL of diluted cells was mixed with 100 µL of LB broth containing each peptide ranging from 64 to 0.125 µg mL^−1 at 2‐fold serial dilutions.
(§3) For fungal strains, overnight cultures were diluted 2000‐fold in YPD broth. 100 µL of diluted cells was mixed with 100 µL of YPD broth containing each peptide ranging from […] 64 to 0.125 µg mL^−1 at 2‐fold serial dilutions.

HeLa cells = test: Cytotoxicity assay (CCK-8); assay type: cell-based, human; details: 48 h
Description: The cytotoxicity of each synAQU peptide was assessed using a cell counting kit‐8 (CCK‐8) assay. HeLa cells were first seeded in a 96‐well flat‐bottom microtiter plate with a density of ∼5000 cells per well and incubated in the DMEM medium supplemented with 10% FBS at 37 °C with 5% CO2 for 24 h. […] All cytotoxicity experiments were done in triplicate (n = 3) and repeated two independent times (n = 2).

[2] = tested on: Candida albicans ATCC 10231; test: MIC assay (YPD broth); assay type: cell-based; details: ATCC 10231, 16 h
Description: as §1, §3

[3] = tested on: Klebsiella pneumoniae CRKP 5452; test: microbe, parasite or virus in culture; assay type: cell-based; details: CRKP 5452, 16 h
Description: as §1, §2

[4] = tested on: Staphylococcus aureus USA300; test: microbe, parasite or virus in culture; assay type: cell-based; details: USA300, 16 h
Description: as §1, §2

[5] = tested on: Streptococcus pyogenes ATCC 19615; test: microbe, parasite or virus in culture; assay type: cell-based; details: ATCC 19615, 16 h
Description: as §1, §2

[6] = tested on: Acinetobacter baumannii 1104008; test: microbe, parasite or virus in culture; assay type: cell-based; details: 1104008, 16 h
Description: as §1, §2

| Structure (SMILES) | activity against all nine tested strains [1] | MIC (μg/mL) Hela (HeLa cells) | MIC (μg/mL) C. albicans ATCC 10231 [2] | MIC (μg/mL) K. pneumoniae CRKP 5452 [3] | MIC (μg/mL) S. aureus USA300 [4] | MIC (μg/mL) S. pyogenes ATCC 19615 [5] | MIC (μg/mL) A. baumannii 1104008 [6] |
| --- | --- | --- | --- | --- | --- | --- | --- |
| CCCCCCCCCCCCCC(=O)N[C@@H](CCCCN)C(=O)N[C@@H](CCCNC(=N)N)C(=O)N[C@@H](CC(C)C)C(=O)N[C@@H](C)C(=O)N[C@@H](CC(C)C)C(=O)N[C@H](C(=O)N[C@@H](CC(=O)O)C(=O)N[C@@H](CC(=O)O)C(=O)N[C@H](C(=O)N[C@@H](CC(N)=O)C(=O)N[C@H](C(=O)N[C@H](Cc1ccccc1)C(=O)N[C@@H](CC(N)=O)C(=O)O)C(C)C)C(C)C)[C@@H](C)O [synAQU7-L] (Myristoyl-KRLALTDDVNV[dF]N-OH) | not active | > 64 µg/mL | > 64 µg/mL | > 64 µg/mL | > 64 µg/mL | > 64 µg/mL | > 64 µg/mL |
| CCCCCCCCCCCCCC(=O)N[C@@H](CN)C(=O)N[C@@H]1C(=O)N[C@@H](CC(C)C)C(=O)N[C@@H](CO)C(=O)N[C@@H](CCN)C(=O)N[C@@H](CN)C(=O)N[C@@H](Cc2ccccc2)C(=O)N[C@@H]([C@@H](C)CC)C(=O)N[C@@H](CCCN)C(=O)N[C@@H](CC(N)=O)C(=O)N[C@@H](Cc2ccccc2)C(=O)O[C@@H]1C [synAQU5-C2] (Myristoyl-[Dap]TLS[Dab][Dap]FI[Orn]NF; ester 2-C) | not active | > 64 µg/mL | > 64 µg/mL | > 64 µg/mL | > 64 µg/mL | > 64 µg/mL | > 64 µg/mL |
| CCCCCCCCCCCCCC(=O)N[C@@H](CCCCN)C(=O)N[C@@H](CCCNC(=N)N)C(=O)N[C@@H](CC(C)C)C(=O)N[C@@H](C)C(=O)N[C@@H](CC(C)C)C(=O)N[C@@H]1C(=O)N[C@@H](CC(=O)O)C(=O)N[C@@H](CC(=O)O)C(=O)N[C@@H](C(C)C)C(=O)N[C@@H](CC(N)=O)C(=O)N[C@@H](C(C)C)C(=O)N[C@H](Cc2ccccc2)C(=O)N[C@@H](CC(N)=O)C(=O)O[C@@H]1C [synAQU7-C6] (Myristoyl-KRLALTDDVNV[dF]N; ester 6-C) | not active | > 64 µg/mL | > 64 µg/mL | > 64 µg/mL | > 64 µg/mL | > 64 µg/mL | > 64 µg/mL |
| CCCCCCCCCCCCCC(=O)N[C@H](C)C(=O)N[C@H](C)C(=O)N[C@H](Cc1ccccc1)C(=O)N[C@H](C(=O)N[C@@H](CCCNC(=N)N)C(=O)O)[C@@H](C)O [synAQU1-L] (Myristoyl-[dA][dA][dF]TR-OH) | not active | > 64 µg/mL | > 64 µg/mL | > 64 µg/mL | > 64 µg/mL | > 64 µg/mL | > 64 µg/mL |
